Measured values as given in US8163758B2 (Parion Sciences, Inc., priority 2006, dated 2012).

Assays:
[1] = target: T1, epithelial sodium channel (ENaC) (Canis lupus familiaris, UniProt A0A8I3MKE6+A0A8I3Q679+Q95165); assay: ENaC blocking activity, short circuit current in airway epithelial monolayers in Ussing chambers; format: cell-based; details: canine bronchial epithelia
T1 construct: endogenous in cells; host or cells: primary canine bronchial epithelial cells cultured at air-liquid interface
T1 sequence (A0A8I3Q679 1-649): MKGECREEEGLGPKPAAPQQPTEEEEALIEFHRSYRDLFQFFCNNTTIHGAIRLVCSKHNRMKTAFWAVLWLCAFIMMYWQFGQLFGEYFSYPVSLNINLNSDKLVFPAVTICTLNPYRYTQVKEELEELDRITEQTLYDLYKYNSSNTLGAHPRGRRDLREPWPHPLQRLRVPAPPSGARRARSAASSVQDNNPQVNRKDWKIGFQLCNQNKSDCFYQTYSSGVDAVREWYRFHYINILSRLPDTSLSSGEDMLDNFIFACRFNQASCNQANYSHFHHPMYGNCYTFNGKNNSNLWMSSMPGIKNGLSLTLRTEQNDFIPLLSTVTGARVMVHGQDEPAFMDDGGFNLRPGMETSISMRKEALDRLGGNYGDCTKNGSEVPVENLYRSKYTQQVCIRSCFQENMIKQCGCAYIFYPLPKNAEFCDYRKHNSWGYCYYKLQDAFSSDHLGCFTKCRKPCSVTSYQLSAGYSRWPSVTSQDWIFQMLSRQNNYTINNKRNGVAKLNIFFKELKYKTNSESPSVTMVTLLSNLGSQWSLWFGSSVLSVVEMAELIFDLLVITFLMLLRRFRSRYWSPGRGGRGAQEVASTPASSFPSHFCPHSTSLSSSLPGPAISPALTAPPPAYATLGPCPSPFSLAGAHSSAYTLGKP
T1 sequence (Q95165 1-641): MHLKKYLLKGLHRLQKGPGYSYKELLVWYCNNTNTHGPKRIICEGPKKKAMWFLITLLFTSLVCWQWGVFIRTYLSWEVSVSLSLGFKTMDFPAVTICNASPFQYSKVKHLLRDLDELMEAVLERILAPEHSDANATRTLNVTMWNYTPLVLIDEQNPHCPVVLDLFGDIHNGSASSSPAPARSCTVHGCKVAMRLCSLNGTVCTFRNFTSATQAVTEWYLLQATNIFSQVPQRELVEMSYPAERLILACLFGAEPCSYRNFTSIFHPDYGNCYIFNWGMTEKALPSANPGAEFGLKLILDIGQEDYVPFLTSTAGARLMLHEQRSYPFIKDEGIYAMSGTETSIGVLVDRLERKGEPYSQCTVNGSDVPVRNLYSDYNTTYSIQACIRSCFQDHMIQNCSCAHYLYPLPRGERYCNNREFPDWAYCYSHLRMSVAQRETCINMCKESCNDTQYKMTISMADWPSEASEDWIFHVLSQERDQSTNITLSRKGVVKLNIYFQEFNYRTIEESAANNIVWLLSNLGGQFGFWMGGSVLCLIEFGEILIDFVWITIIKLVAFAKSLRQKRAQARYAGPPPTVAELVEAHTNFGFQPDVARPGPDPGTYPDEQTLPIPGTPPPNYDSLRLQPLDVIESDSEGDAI
T1 sequence (A0A8I3MKE6 1-646): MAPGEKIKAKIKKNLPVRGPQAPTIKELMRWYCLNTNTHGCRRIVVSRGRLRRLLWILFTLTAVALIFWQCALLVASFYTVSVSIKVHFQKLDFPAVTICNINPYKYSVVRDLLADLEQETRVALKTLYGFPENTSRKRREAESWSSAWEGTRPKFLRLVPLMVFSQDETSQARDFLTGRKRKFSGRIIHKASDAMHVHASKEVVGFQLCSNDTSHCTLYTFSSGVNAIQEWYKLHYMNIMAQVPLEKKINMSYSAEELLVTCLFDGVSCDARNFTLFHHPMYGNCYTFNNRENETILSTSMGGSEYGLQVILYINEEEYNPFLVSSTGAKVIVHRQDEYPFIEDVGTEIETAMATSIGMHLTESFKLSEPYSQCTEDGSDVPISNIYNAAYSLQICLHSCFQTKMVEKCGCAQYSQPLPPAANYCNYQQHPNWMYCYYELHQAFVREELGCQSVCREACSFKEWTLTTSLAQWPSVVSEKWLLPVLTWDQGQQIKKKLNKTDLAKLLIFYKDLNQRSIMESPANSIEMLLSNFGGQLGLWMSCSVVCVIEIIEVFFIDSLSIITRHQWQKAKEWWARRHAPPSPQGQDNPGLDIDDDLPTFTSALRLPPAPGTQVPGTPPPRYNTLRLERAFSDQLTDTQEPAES
Method: To assess epithelial sodium channel blocker potency the compounds of the present invention involves the determination of lumenal drug inhibition of airway epithelial sodium currents measured under short circuit current (ISC) using airway epithelial monolayers mounted in Ussing chambers. Cells obtained from freshly excised human, or dog airways are seeded onto porous 0.4 micrometer Transwell® Permeable Supports (Corning Inc. Acton, Mass.), cultured at air-liquid interface (ALI) conditions in hormonally defined media, and assayed for sodium transport activity (ISC) while bathed in Krebs Bicarbonate Ringer (KBR) in Ussing chambers. All test drug additions are to the lumenal bath with approximately half-log dose additions (from 1×10^−11 M to 6×10^−5 M), and the cumulative change in ISC (decreases) recorded. All drugs are prepared in dimethyl sulfoxide as stock solutions at a concentration of approximately 1×10^−2 and stored at −20° C. Six preparations are typically run in parallel; one preparation per run incorporates 552-02 as a positive control. Before the start of the concentration-effect relationship propranolol, a non-selective […], was applied to the lumenal bath (10 μM) to inhibit the beta agonist component of the designer multiple ligand (DML). All data from the voltage clamps are collected via a computer face and analyzed off-line.
Concentration-effect relationships for all compounds are considered and analyzed Using GraphPad Prism version 3.00 for Windows, GraphPad Software, San Diego Calif. USA. IC50 values, […], are calculated and compared to the 552-02 potency as a positive control.

[2] = target: T2, beta-adrenergic receptor (Canis lupus familiaris, UniProt P54833); assay: Beta agonist activity, anion secretion short circuit current in airway epithelial monolayers in Ussing chambers; format: cell-based, canine
T2 construct: endogenous in cells; host or cells: primary canine bronchial epithelial cells cultured at air-liquid interface
T2 sequence (P54833 whole entry): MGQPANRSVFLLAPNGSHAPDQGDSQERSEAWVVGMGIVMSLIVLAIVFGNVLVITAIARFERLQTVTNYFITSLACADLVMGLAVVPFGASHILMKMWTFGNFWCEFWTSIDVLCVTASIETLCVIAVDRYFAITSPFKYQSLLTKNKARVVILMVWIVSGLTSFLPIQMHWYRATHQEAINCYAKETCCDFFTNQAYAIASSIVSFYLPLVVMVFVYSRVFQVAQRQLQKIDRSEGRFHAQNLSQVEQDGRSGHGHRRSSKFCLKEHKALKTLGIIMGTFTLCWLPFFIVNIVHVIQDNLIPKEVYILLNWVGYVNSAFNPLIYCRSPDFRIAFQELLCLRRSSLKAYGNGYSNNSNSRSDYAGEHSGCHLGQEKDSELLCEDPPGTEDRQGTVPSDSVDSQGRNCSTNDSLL
Method: To assess beta agonist activity the compounds of the present invention involves the determination of lumenal drug addition to promote airway epithelial anion currents measured under short circuit current (ISC) using airway epithelial monolayers mounted in Ussing chambers. Cells obtained from freshly excised human, dog, or sheep airways are seeded onto porous 0.4 micron Transwell® Permeable Supports (Corning), cultured at air-liquid interface (ALI) conditions in hormonally defined media, and assayed for anion secretion (ISC) while bathed in Krebs Bicarbonate Ringer (KBR) in Ussing chambers. All test drug additions are to the lumenal bath with approximately half-log dose additions (from 8×10^−10 M to 6.5×10^−5 M), and the cumulative change in ISC (excitation) recorded. All drugs are prepared in dimethyl sulfoxide as stock solutions at a concentration from 1×10^−1 to 1×10^−2 M and stored at −20° C. […] Before the start of the concentration-effect relationship 552-02 a potent sodium channel blocker was applied to the apical surface (1 μM) to eliminate changes in Isc caused by sodium absorption. All data from the voltage clamps are collected via a computer interface and analyzed off-line.
Concentration-effect relationships for all compounds are considered and analyzed Using GraphPad Prism version 3.00 for Windows, GraphPad Software, San Diego Calif. USA.

ENaC blocking potency relative to Amiloride ([1]; fold potency versus amiloride): 93 × Amiloride
IC50 ([1]; lumenal addition, propranolol 10 μM applied first): 0.0084 µM
EC50 [2]: 0.0716 µM
melting point: 120 to 121 °C (dec.)
Compound: C[C@H](CCCc1ccc(CCCCNC(=N)NC(=O)c2nc(Cl)c(N)nc2N)cc1)NC[C@H](O)c1ccc(O)c(NC=O)c1 [Compound 30, N-(5-{2-[4-(4-{4-[N′-(3,5-diamino-6-chloropyrazine-2-carbonyl)-guanidino]butyl}phenyl)-1-methylbutylamino]-1-(R)-hydroxyethyl}-2-hydroxyphenyl)formamide]
